Patent US12153056B2, “Compositions for and methods of diagnosing, prognosing, and treating diabetes” (Washington University, priority 2019, dated 2024)
“Also recorded” adds a separate entry of the source. One block for each substance: values may come before it. Bridge positions count the residues as written; N and C are the ends. Ends that are not written are not given here.

Assays:
insulin receptor [1] = molecular target: T1, insulin receptor (Mus musculus, UniProt P15208); assay: Antigen presentation assay: ConA-activated peritoneal macrophages treated with S961, insulin pulse, IIT-3 T cell hybridoma; type: cell-based; design: endogenous in cells; host or cells: ConA-stimulated peritoneal macrophages; conditions: 0.2 or 1 μM S961 for 1 h before insulin; IIT-3 hybridoma, IL-2 production
T1 sequence (P15208 28-748 limits assumed): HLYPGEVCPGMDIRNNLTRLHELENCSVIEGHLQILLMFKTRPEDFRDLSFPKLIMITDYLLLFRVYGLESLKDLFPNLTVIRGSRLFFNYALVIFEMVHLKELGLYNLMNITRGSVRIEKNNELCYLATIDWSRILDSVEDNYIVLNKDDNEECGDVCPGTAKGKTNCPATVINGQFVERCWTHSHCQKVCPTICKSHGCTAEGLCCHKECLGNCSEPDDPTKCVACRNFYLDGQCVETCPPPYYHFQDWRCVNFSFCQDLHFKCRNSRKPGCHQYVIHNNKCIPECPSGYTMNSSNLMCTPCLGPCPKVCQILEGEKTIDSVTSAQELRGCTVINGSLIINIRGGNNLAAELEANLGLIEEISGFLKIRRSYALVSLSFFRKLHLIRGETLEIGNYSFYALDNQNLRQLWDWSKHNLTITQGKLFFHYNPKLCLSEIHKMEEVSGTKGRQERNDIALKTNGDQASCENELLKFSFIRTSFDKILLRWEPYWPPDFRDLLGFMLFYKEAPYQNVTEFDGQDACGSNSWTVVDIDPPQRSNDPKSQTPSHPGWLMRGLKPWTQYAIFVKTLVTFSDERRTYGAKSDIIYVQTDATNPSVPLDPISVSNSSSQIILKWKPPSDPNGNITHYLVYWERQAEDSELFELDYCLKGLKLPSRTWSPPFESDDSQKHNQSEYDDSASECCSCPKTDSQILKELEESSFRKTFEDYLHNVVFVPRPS
T1 sequence (P15208 753-1372 partner limits assumed): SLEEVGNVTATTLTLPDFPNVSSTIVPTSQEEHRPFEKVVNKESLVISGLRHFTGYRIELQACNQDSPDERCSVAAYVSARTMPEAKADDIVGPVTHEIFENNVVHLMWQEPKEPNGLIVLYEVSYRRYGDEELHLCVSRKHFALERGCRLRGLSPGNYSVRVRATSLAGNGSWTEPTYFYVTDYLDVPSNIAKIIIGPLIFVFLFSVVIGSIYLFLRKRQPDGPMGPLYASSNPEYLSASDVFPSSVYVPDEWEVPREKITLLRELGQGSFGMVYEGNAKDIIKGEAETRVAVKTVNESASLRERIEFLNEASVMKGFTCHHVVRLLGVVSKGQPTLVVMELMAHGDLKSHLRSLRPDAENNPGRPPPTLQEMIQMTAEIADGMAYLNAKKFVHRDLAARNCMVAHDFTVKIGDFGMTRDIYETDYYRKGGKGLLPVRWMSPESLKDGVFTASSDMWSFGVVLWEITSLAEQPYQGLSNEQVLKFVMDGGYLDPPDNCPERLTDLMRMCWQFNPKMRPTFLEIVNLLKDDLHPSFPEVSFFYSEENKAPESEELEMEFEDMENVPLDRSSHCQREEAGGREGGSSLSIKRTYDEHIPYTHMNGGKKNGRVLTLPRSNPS
Procedure: (§1) In FIG. 5i, ConA-stimulated peritoneal macrophages were treated with 0.2 or 1 μM S961 for 1 h at 37° C. and were then cultured with the IIT-3 T cell hybridoma that recognizes the 13-21 peptide, in the presence of serially diluted insulin (19278; Sigma). In FIG. 6e, C3g7 cells were treated with chloroquine for 2 h at 37° C., washed, pulsed with the antigens, and cultured with T cell hybridomas. After incubation for 18 h, the culture supernatants were assayed for IL-2 production.

insulin receptor [2] = molecular target: T1, insulin receptor; assay: Two-photon imaging motility assay of transferred T cells in lymph nodes of mice infused with S961 or PBS; type: in vivo, NOD mice; design: from tissue; host or cells: whole animal (NOD mice), in vivo; conditions: S961 infusion versus PBS, day 3 post transfer
Procedure: (§2) CFSE- or CMTMR-labelled T cells were mixed 1:1 and were injected intravenously. For all the two-photon experiments, 2×10^6 T cells with either label were transferred. […] All the recipient mice were 3-4-week-old female mice unless otherwise mentioned. For experiments in FIG. 4f, FACS-sorted 8F10 T cells from pooled iLNs of 8-10 NOD or B16A mice were adoptively transferred intravenously into 4-6-week old NOD. Rag1÷ recipients (10^5 cells per mouse).
Lymph nodes were removed, attached to coverslips, placed in CO2-independent medium (Gibco) at room temperature and immediately imaged in a perfusion chamber to simulate blood flow (36.5° C. DMEM; 95% O2 and 5% CO2). […] Fluorescence emission was guided directly to external hybrid photodetectors (Leica/Hamamatsu). […]
(§3) For cell tracking, two or three regions of one lymph node were randomly selected and cropped. […] We also calculated the meandering index and the motility coefficient for each track. […] The mean track velocities (μm/min) were calculated for individual tracks as previously described^11.
The S961 peptide ([…] (SEQ ID NO: 33)) was synthesized by LifeTein, with an intrachain disulphide bridge between Cys33 and Cys40 (underlined). […] Blood glucose levels were monitored twice a day (Chemstrip 2GP; Roche); mice with a level above 250 mg/dl for two consecutive measurements were considered diabetic.

insulin receptor [3] = molecular target: T1, insulin receptor; assay: In vivo blockade of insulin receptor by S961 infusion via osmotic pump, blood glucose; design: from tissue; host or cells: whole animal (NOD mice), in vivo; conditions: S961 20 nMol/week via osmotic pump, 3-week old NOD mice, versus PBS
Procedure: The S961 peptide ([…] (SEQ ID NO: 33)) was synthesized by LifeTein, with an intrachain disulphide bridge between Cys33 and Cys40 (underlined). S961 (20 nMol/week) or control PBS was filled into the Alzet osmotic pump (2001 model, Durect) and inserted subcutaneously in the back of anaesthetized mice through an incision between scapula. Blood glucose levels were monitored twice a day (Chemstrip 2GP; Roche); mice with a level above 250 mg/dl for two consecutive measurements were considered diabetic.

[4] = system: B:13-21-specific IIT-3 and B:12-20-specific 9B9 T cell hybridoma; assay: T cell hybridoma responses to C3g7 APCs treated with or without chloroquine and pulsed with antigens; type: cell-based; conditions: C3g7 APCs with or without 100 μM chloroquine for 2 h
Procedure: as §1

I-A^g7-expressing APCs = assay: Intravenous injection of Alexa Fluor 488-conjugated B:9-23, binding to splenic and thymic APCs by flow cytometry; type: in vivo, mice; conditions: 100 μg intravenously, one hour later
Procedure: FIG. 11a-FIG. 11c: Characterization of circulating B:9-23 and its localization into lymphoid organs. a, Unmodified synthetic B:9-23 (3 pmol) was spiked into 1 ml PBS, purified using C18 tips, lyophilized, and analyzed by nLC-MS/MS. […] An hour later, spleens and thymi were harvested, digested with liberase and DNase, and binding to splenic and thymic APCs was measured by flow cytometry. b, Representative FACS plots showing the binding of B:9-23 to splenic XCR1^+ and Sirpα^+ dendritic cell (DC) subsets and B cells (top). The bar graph summarizes cumulative results from individual mice (each point), pooled from three independent experiments. ns, not significant; **P<0.05; ***P<0.01; ****P<0.005, two-tailed unpaired Student's t-test. c, Representative FACS plots showing the binding of B:9-23 to thymic XCR1^+ and Sirpα^+ DC subsets and to CD45^− cells expressing MHCII. Data are mean±S.D from five individual mice per strain from two independent experiments.

10E11 CD4 T cells = assay: Two-photon motility assay of anti-HEL 10E11 T cells in mice given HEL; type: in vivo, NOD mice; conditions: inguinal lymph nodes, day 3 post transfer, indicated amounts of HEL
Procedure: as §2
Lymph nodes were removed, attached to coverslips, placed in CO2-independent medium (Gibco) at room temperature and immediately imaged in a perfusion chamber to simulate blood flow (36.5° C. DMEM; 95% O2 and 5% CO2). Two-photon microscopy images were collected using a customized Leica SP8 Two-Photon Microscope (Leica Microsystems) equipped with a 25× and 0.95 numerical aperture water-immersion objective and a Mai Tai HP DeepSee Laser (Spectra-Physics) tuned to 840 nm. Fluorescence emission was guided directly to external hybrid photodetectors (Leica/Hamamatsu). […]
as §3

- ability of ConA-activated macrophages to present insulin (insulin receptor [1]): impaired
Substance: S961: insulin receptor antagonist peptide GSLDESFYDWFERQLGGGSGGSSLEEEWAQIQCEVWGRGCPSY (SEQ ID NO: 33), synthesized by LifeTein (disulfide 33-40; listed as Mus musculus)
- motility arrest of 8F10 T cells (insulin receptor [2]): remained at a comparable level; also recorded: comparable level of motility arrest
- reduction in mean velocity (motility) of transferred 4F7 T cells (insulin receptor [2]): the magnitude of the reduction was significantly smaller than with PBS; also recorded: partial reduction of the 4F7 T cell motility
- blood glucose levels (insulin receptor [3]): sustained increase in blood glucose levels

Substance: insulin: insulin (19278; Sigma) used as antigen
- need for internal processing for T cell reactivity [4]: require internal processing

- display by APCs in thymus (I-A^g7-expressing APCs): not in thymus
Substance: fluorochrome-labelled B:9-23: Alexa Fluor 488-conjugated B:9-23 peptide (SHLVEALYLVCGERG; also: Alexa Fluor 488-conjugated (position not given here))
- display by APCs in spleen (I-A^g7-expressing APCs): rapidly displayed by I-A^g7-expressing APCs in spleen

Substance: HEL: hen egg lysozyme, control antigen recognized by 10E11 CD4 T cells
- 10E11 T cell velocities (10E11 CD4 T cells): progressive reduction of the 10E11 T cell velocities as the antigen amount increases

Substance: B:9-23: insulin B-chain peptide, segment 9-23 (SHLVEALYLVCGERG)
- need for internal processing for T cell reactivity [4]: not to B:9-23 or B:1-30 require internal processing
